These results are taken from US20060063932A1, “Aminoalkylpyrrolidine serotonin receptor ligands and compositions, their pharmaceutical uses, and methods for their synthesis” (priority 2000, published 2006).

The target of assay [1] is human D2S dopamine (hD2S-DA) receptors (Homo sapiens, UniProt P14416). Briefly: Competition radioligand binding, hD2s DA ([3H]Spiperone).
In another assay the target is human 5-HT2a receptors (Homo sapiens, UniProt P28223). Briefly: Competition radioligand binding, h5-HT2a ([3H]Ketanserin).
human 5-HT2a receptors, sequence (P28223 whole entry): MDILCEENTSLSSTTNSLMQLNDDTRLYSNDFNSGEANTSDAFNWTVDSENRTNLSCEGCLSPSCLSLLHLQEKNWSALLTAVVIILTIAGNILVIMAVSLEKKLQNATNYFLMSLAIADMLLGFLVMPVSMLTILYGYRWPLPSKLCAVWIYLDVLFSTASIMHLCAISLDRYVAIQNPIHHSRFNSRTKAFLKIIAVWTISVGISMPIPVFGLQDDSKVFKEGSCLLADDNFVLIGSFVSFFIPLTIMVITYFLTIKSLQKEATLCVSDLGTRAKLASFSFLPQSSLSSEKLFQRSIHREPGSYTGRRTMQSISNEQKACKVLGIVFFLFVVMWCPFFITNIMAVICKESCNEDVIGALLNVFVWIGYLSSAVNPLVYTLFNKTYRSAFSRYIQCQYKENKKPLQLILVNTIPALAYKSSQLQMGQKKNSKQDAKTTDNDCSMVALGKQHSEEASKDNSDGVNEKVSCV
Assay [2] addresses T1, human 5-HT6 (h5-HT6) receptors (Homo sapiens, UniProt P50406).
T1 construct: purchased Receptor Biology, Inc. (Beltsville, Md.); host or cells: HEK-293 cells
Description: Competition radioligand binding, h5-HT6 ([3H]LSD). The following applies: membranes of HEK-293 cells, 1 hr RT.

In assay [3] the target is T2, human 5-HT7B (h5-HT7b) receptors (Homo sapiens, UniProt P34969).
T2 construct: expressed in transfected cells
T2 sequence (P34969 1-432 limits assumed): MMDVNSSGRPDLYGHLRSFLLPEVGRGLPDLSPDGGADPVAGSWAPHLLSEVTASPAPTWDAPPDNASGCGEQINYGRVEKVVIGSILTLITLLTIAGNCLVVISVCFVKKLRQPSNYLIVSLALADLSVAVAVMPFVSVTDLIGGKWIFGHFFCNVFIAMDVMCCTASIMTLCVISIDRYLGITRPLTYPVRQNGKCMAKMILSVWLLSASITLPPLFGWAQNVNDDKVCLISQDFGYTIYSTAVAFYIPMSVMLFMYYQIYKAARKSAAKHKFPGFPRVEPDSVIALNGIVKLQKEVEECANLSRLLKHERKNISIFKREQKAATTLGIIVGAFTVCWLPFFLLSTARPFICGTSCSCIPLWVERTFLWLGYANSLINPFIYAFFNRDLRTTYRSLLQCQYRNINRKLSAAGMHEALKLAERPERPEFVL
Description: Competition radioligand binding, h5-HT7b ([3H]5-CT). The following applies: membranes of HEK 293 cells, 2 hr 37° C., read-out: Ki (nM) 5-HT7.

The target in another assay is T3, human 5-HT1a receptors (Homo sapiens, UniProt P08908).
T3 construct: expressed in transfected cells; host or cells: CHO K1 cells
T3 sequence (P08908 1-422): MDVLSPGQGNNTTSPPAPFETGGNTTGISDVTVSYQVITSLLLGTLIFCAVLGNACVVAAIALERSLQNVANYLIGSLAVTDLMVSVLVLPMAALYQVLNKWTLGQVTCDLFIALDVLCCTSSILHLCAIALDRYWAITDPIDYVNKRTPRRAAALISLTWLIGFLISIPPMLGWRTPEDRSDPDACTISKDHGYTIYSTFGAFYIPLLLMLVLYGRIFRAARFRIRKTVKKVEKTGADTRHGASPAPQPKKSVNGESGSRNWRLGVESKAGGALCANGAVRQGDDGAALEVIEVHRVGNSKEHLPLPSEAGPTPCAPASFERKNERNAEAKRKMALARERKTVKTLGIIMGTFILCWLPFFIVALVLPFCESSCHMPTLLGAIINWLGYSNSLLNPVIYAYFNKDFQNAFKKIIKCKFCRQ
Description: Competition radioligand binding, h5-HT1a ([3H]5-CT). The following applies: membranes of CHO K1 cells, 1 hr RT.

Where [4] appears, read: read-out: Ki (nM) D2, membranes of A9 L cells, [3H]Spiperone, 2 hr RT.
The mark [5] stands for this setting: read-out: Ki (nM) 5-HT2A, membranes of CHO K1 cells, [3H]Ketanserin, 1 hr 37° C.

Like-named read-outs stand apart in the source and are kept apart here.

human D2S dopamine (hD2S-DA) receptors, sequence (P14416 1-414 isoform P14416-2): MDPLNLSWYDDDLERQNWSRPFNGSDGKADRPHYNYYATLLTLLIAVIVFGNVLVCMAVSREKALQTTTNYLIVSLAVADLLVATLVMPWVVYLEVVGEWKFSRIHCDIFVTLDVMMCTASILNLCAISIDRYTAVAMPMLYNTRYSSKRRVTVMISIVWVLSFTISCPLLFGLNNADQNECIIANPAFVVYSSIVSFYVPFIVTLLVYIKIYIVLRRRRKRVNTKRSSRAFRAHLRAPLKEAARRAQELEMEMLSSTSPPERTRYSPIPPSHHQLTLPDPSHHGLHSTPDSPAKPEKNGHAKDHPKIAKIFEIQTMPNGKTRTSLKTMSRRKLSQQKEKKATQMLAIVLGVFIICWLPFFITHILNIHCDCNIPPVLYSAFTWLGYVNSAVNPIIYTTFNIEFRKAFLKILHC
T1 sequence (P50406 whole entry): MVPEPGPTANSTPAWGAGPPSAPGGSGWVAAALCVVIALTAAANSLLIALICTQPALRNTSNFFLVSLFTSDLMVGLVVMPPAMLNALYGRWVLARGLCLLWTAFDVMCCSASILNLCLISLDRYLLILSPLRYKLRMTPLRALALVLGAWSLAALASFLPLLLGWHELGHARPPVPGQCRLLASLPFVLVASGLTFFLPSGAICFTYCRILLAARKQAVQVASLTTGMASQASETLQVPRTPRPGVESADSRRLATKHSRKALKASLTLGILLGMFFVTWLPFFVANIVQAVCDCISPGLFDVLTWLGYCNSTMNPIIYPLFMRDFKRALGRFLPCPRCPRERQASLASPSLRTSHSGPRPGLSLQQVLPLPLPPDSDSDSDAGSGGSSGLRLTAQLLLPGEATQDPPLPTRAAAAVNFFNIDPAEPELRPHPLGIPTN

Consider “(S)-(3-Hydroxybenzyl)(4-chlorobenzyl)-2-aminoethyl-N-methylpyrrolidine [Example 19]”, for which the Ki (as a rule, a measure of affinity in units of concentration, obtained from inhibition or displacement) was 1580 nM in assay [1] (setting [4]); 74 nM on human 5-HT2a receptors (setting [5]); 210 nM in assay [2]; 2.7 nM in assay [3]; more than 4000 nM on human 5-HT1a receptors.
`CN1CCC[C@H]1CCN(Cc1ccc(Cl)cc1)CC1CC=CCC1` (stereo partly drawn) [Example 43]: the Ki in assay [3] came out at 180 nM.
Consider `CCN1CCC[C@H]1CCN(Cc1ccc(C)cc1)Cc1ccc(C)cc1` [Example 54, (S)-Di-(4-methylbenzyl)aminoethyl-N-ethylpyrrolidine], for which the Ki in assay [1] (setting [4]) was determined as 380 nM; on human 5-HT2a receptors (setting [5]), 56 nM; in assay [2], 300 nM; in assay [3], 63 nM; at human 5-HT1a receptors it was 610 nM.
Consider `CN1CCC[C@H]1CCN(Cc1cccc(O)c1)Cc1ccc2ccccc2c1` [Example 34], for which the Ki in assay [1] was 1750 nM; on human 5-HT2a receptors it was 61 nM; in assay [2], 315 nM; in assay [3] it was 8.6 nM; on human 5-HT1a receptors, 825 nM.
`CN1CCCC1CCN(Cc1cccc(O)c1)Cc1cccc(O)c1` (racemic) [Example 3]: the Ki was more than 2500 nM in assay [1], 2000 nM on human 5-HT2a receptors, 2640 nM in assay [2] and 49 nM in assay [3].
Turning to `Cc1ccc(CN(CC[C@@H]2CCCN2C)Cc2ccc(C)cc2)cc1` [Example 7], the Ki in assay [1] stood at 221 nM; at human 5-HT2a receptors, 17 nM; in assay [2], 63 nM; in assay [3], 2.1 nM; on human 5-HT1a receptors, 2850 nM.
For `CN1CCC[C@H]1CCN(Cc1cccc(O)c1)Cc1cccc(O)c1` [Example 2, (S)-Di-(3-hydroxybenzyl)-2-aminoethyl-N-methylpyrrolidine], the Ki in assay [1] (setting [4]) is more than 2500 nM; at human 5-HT2a receptors (setting [5]), 500 nM; in assay [2], 640 nM; in assay [3], 9.7 nM; on human 5-HT1a receptors, 3500 nM.
Take `CN1CCC[C@H]1CCN(Cc1ccc(Cl)cc1)Cc1ccc2c(c1)Cc1ccccc1-2` [Example 45]: the Ki in assay [1] is 250 nM; at human 5-HT2a receptors, 27 nM; in assay [2], 38 nM; in assay [3], 12 nM; on human 5-HT1a receptors, more than 4000 nM.
For the compound `C[C@H](CN(CC[C@@H]1CCCN1C)Cc1ccc(Cl)cc1)c1ccccc1` [Example 53], in assay [3], the Ki stood at 161 nM.
With `Cc1c(CN(CC[C@@H]2CCCN2C)Cc2ccc(Cl)cc2)sc2ccccc12` [Example 52], the Ki in assay [1] was 1110 nM; at human 5-HT2a receptors, 76 nM; in assay [2], 310 nM; in assay [3], 27 nM; at human 5-HT1a receptors, more than 4000 nM.
Taken in the same sequence, the figures for `COc1cccc(CN(CCC2CCCN2C)Cc2ccccc2)c1` (stereo not drawn) [Example 33] were 780 nM, 51 nM, 35 nM, 56 nM and more than 4000 nM.
Take `CN1CCC[C@H]1CN(Cc1ccccc1)Cc1ccccc1` [Example 55, (S)-Di-(benzyl)-2-aminomethyl-N-methylpyrrolidine]: the Ki in assay [3] came out at 170 nM.
Regarding `Cc1cc(CN(CC[C@@H]2CCCN2C)Cc2ccc(Cl)cc2)oc1C` [Example 42], the Ki in assay [1] is more than 2500 nM; on human 5-HT2a receptors it was 88 nM; in assay [2] it was 54 nM; in assay [3], 21 nM; on human 5-HT1a receptors it was more than 4000 nM.
In the case of `CSc1ccc(CN(CC[C@@H]2CCCN2C)Cc2ccc(Cl)cc2)cc1` [Example 40], the Ki was 1110 nM in assay [1]; 23 nM at human 5-HT2a receptors; 132 nM in assay [2]; 6.5 nM in assay [3]; more than 4000 nM at human 5-HT1a receptors.
Taken in the same sequence, the figures for `CN1CCC[C@H]1CCN(Cc1ccc(Cl)cc1)Cc1ccc(O)c(Cl)c1` [Example 47] were 1010 nM, 180 nM, 110 nM, 2.7 nM and more than 4000 nM.
With `CN1CCCC1CCN(Cc1ccccc1)Cc1ccccc1` (racemic) [Example 12], the Ki was found to be 360 nM in assay [1], 74 nM in assay [2] and 24 nM in assay [3].
As to `Cc1ccc(CN(CCC2CCCN2C)Cc2ccc(C)cc2)cc1` (racemic) [Example 4], the Ki in assay [1] turned out to be 110 nM; on human 5-HT2a receptors, 20 nM; in assay [2], 41 nM; in assay [3], 9.9 nM.
For `CN1CCC[C@H]1CCN(Cc1cccc(C(N)=O)c1)Cc1cccc(C(N)=O)c1` [Example 9], the inhibition constant Ki in assay [3] came out at 5100 nM.
For the compound `CN1CCC[C@@H]1CCN(Cc1cccc(O)c1)Cc1cccc(O)c1` [Example 10], the Ki in assay [3] came out at 1000 nM.
As for `CN1CCCC1CCN(Cc1ccccc1)Cc1cccc2ccccc12` (stereo not drawn) [Example 25], the Ki is 570 nM in assay [1]; 87 nM on human 5-HT2a receptors; 99 nM in assay [2]; 45 nM in assay [3]; more than 4000 nM on human 5-HT1a receptors.
Taken in the same sequence, the figures for `COc1cc(CN(CC[C@@H]2CCCN2C)Cc2ccc(Cl)cc2)ccc1O` [Example 50] were more than 2500 nM, 180 nM, 280 nM, 3.2 nM and more than 4000 nM.
On to `CC(C)c1ccc(CN(CCC2CCCN2C)Cc2ccccc2)cc1` (stereo not drawn) [Example 32], for which the Ki was found to be 850 nM in assay [1], 11 nM at human 5-HT2a receptors, 71 nM in assay [2] and 36 nM in assay [3].
As to `CSc1ccc(CN(CCC2CCCN2C)Cc2ccccc2)cc1` (stereo not drawn) [Example 27], the Ki in assay [3] is 150 nM.
Take `CCc1ccc(CN(CCC2CCCN2C)Cc2ccccc2)cc1` (stereo not drawn) [Example 28]: the Ki in assay [1] was 270 nM; at human 5-HT2a receptors, 73 nM; in assay [2], 91 nM; in assay [3] it was 19 nM; on human 5-HT1a receptors, more than 4000 nM.
Taken in the same sequence, the figures for `CN1CCC[C@H]1CCN(Cc1ccc(C(C)(C)C)cc1)Cc1cccc(O)c1` [Example 37] were 2300 nM, 160 nM, 375 nM, 66 nM and more than 4000 nM.
As to `CN1CCC[C@H]1CCN(Cc1ccc(Cl)cc1)Cc1ccccc1Cl` [Example 44], the Ki in assay [3] turned out to be 260 nM.
For `Cc1ccc(C)c(CN(CCC2CCCN2C)Cc2ccccc2)c1` (stereo not drawn) [Example 24], the Ki is 410 nM in assay [1]; 20 nM at human 5-HT2a receptors; 72 nM in assay [2]; 31 nM in assay [3]; more than 4000 nM at human 5-HT1a receptors.
Taken in the same sequence, the figures for `CN1CCC[C@H]1CCN(Cc1ccc(Cl)cc1)Cc1ccc(O)cc1Cl` [Example 39] were 420 nM, 85 nM, 49 nM, 0.91 nM and 3920 nM.
Turning to `CN1CCCC1CCN(Cc1ccc(Cl)cc1)Cc1ccc(Cl)cc1` (racemic) [Example 5], the Ki was 39 nM at human 5-HT2a receptors, 42 nM in assay [2], 4.7 nM in assay [3] and 540 nM at human 5-HT1a receptors.
Regarding `Cc1ccc(CN(CC[C@@H]2CCCN2C)Cc2ccccc2)cc1` [Example 22], the Ki was 220 nM in assay [1]; 44 nM on human 5-HT2a receptors; 39 nM in assay [2]; 8.3 nM in assay [3]; more than 4000 nM on human 5-HT1a receptors.
As for `CN1CCCC1CCN(Cc1ccccc1)Cc1c(Cl)cccc1Cl` (stereo not drawn) [Example 23], the Ki is 160 nM in assay [1]; 16 nM on human 5-HT2a receptors; 47 nM in assay [2]; 28 nM in assay [3]; more than 4000 nM at human 5-HT1a receptors.
As for `CN1CCCC1CCN(Cc1ccccc1)Cc1ccc(C(C)(C)C)cc1` (stereo not drawn) [Example 31], the Ki in assay [1] was determined as 1210 nM; at human 5-HT2a receptors, 130 nM; in assay [2], 45 nM; in assay [3] it was 66 nM.
Consider `CN1CCCC1CCN(Cc1ccccc1)Cc1cccc(O)c1` (stereo not drawn) [Example 29], for which the Ki in assay [1] is 1010 nM; at human 5-HT2a receptors it was 69 nM; in assay [2] it was 33 nM; in assay [3] it was 23 nM; at human 5-HT1a receptors, more than 4000 nM.
With `Cc1cc(CN(CC[C@@H]2CCCN2C)Cc2ccc(Cl)cc2)cc(C)c1O` [Example 48], the Ki was more than 2500 nM in assay [1]; 233 nM on human 5-HT2a receptors; 71 nM in assay [2]; 4.2 nM in assay [3]; 3070 nM at human 5-HT1a receptors.
Take `CN1CCC[C@H]1CCN(CCc1ccccc1)Cc1ccc(Cl)cc1` [Example 38]: the Ki in assay [3] worked out at 200 nM.
On the same count and under the same terms, to `CN1CCCC1CCN(CCc1ccccc1)CCc1ccccc1` (racemic) [Example 8] belongs 3200 nM; to `CN1CCC[C@H]1CCN(Cc1ccc(Cl)cc1)Cc1ccc(O)c([N+](=O)[O-])c1` [Example 51], 200 nM.
`CN1CCCC1CCN(Cc1ccccc1)Cc1ccc(F)cc1` (stereo not drawn) [Example 26]: the figures for the Ki in assay [1], in assay [2] and in assay [3] were 400 nM, 20 nM and 18 nM, respectively.
